Several values for one entry are separate records, joined by “and”; a condition that tells them apart may be missing. Identical values can stand only once. *1 amine or outer side, *2 acyl side, *3 side chain or, on linkers, in order; H or OH if unused. Where a SMILES comes first, the peptide text is derived from it. Bridges are numbered along the chain shown (N, C = ends). Roman numbers before positions name the chains, in order. Where no end group is shown, it is not given here. [ ]: non-standard residue; d: D form. The star is where a group is joined. X2 = O=C1NC(=O)C(SC[C@@H](CO)N[*:2])=C1SC[C@@H](CO)N[*:1]; BMH = O=C1CC([*:1])C(=O)N1CCCCCCN1C(=O)CC([*:2])C1=O; Maleimide(3,4-diyl) = O=C1NC(=O)C([*:2])=C1[*:1]; pXylylene = c1cc(C[*:2])ccc1C[*:1]; aThr = C[C@H](O)[C@H](N)C(=O)O; Ac6c = NC1(C(=O)O)CCCCC1; X1 = C(=C\C[*:2])/C[*:1]; Dab = NCC[C@H](N)C(=O)O; Nva = CCC[C@H](N)C(=O)O; NHNH2 = NN*

One test relates to A. baumannii ATCC 19606. The test is described as follows: Antibacterial assay (MIC). Format: cell-based. The conditions noted are these: A. baumannii ATCC 19606, MHB, 37° C. The procedure:
(§1) Antibacterial assay. Antibacterial assays are undertaken to determine the minimal inhibitory concentrations (MIC) as described previouslyl^6.
(§2) Antibacterial activity. Each C-terminal modified PrAMP DTM-linked tetramer is assayed against nosocomial Gram-negative bacteria, including E. coli ATCC 29222, K. pneumoniae ATCC 13883, A. baumannii ATCC 19606 and P. aeruginosa ATCC 47085.

The subject of a further test is E. coli ATCC 29222. The test can be described thus: Antibacterial assay (MIC). Particulars: E. coli ATCC 29222, MHB, 37° C. Format: cell-based. The protocol: as §1, §2
The next test concerns K. pneumoniae ATCC 13883. The test is described as follows: Antibacterial assay (MIC). Particulars: K. pneumoniae ATCC 13883, MHB, 37° C. Format: cell-based. The protocol: as §1, §2
The subject of the next test is P. aeruginosa ATCC 47085. The test can be described thus: Antibacterial assay (MIC). The conditions noted are these: P. aeruginosa ATCC 47085, MHB, 37° C. Format: cell-based. The procedure:
as §1, §2

Test [1] relates to multidrug-resistant Klebsiella pneumoniae K97/09. The conditions noted are these: K. pneumoniae K97/09, compound alone.
In test [2] the test system is multidrug-resistant Acinetobacter baumannii BAA-1605. Particulars: A. baumannii BAA-1605, compound alone.
The test system of test [3] is Klebsiella pneumoniae K97/09. The test can be described thus: Checkerboard synergy assay (FIC index). Format: cell-based. The conditions noted are these: K. pneumoniae K97/09. The procedure: In vitro activity and synergy. Minimal inhibitory concentration (MIC) assays were performed using sterile 96-well polypropylene plates in a final volume of […]. Briefly, 50 μL of midlogarithmic phase bacterial cultures were diluted to 5×10^5 CFU/mL in Mueller-Hinton broth (MHB) and then added to 50 μL of the serially diluted antibiotic. The highest A3-APO and other test compound concentration evaluated was 256 mg/L. Cultures were incubated at 37° C. for 16-20 h without shaking. MICs were identified as the lowest antimicrobial concentrations at which turbidity was not observed. Antimicrobial synergy was determined by evaluating the fractional inhibitory concentration (FIC) index and was characterized by a conventional checkerboard assay (Fernandez-Cuenca et al., 2003). Bacteria grown to mid-logarithmic phase in MHB were pre-incubated with serially diluted concentrations of peptides such as A3-APO, and the antimicrobial controls, imipenem, colistin or meropenem.
The sum of the FICs (Σ FIC) was calculated with the equation Σ FIC=FICA+FICB=(CA/MICA)+(CB/MICB), where MICA and MICB are the MICs of antimicrobial A and B alone, respectively, and CA and CB are the concentrations of the drugs when combined, respectively. Synergy was defined as a Σ FICs≤0.5 and additive activity was defined as a Σ FICs>0.5≤1.0.

Test [4] has as its system Acinetobacter baumannii BAA-1605. Format: cell-based. Particulars: A. baumannii BAA-1605.
Procedure: In vitro activity and synergy. Minimal inhibitory concentration (MIC) assays were performed using sterile 96-well polypropylene plates in a final volume of 100 mL. Briefly, 50 μL of midlogarithmic phase bacterial cultures were diluted to 5×10^5 CFU/mL in Mueller-Hinton broth (MHB) and then added to 50 μL of the serially diluted antibiotic. […] MICs were identified as the lowest antimicrobial concentrations at which turbidity was not observed. Antimicrobial synergy was determined by evaluating the fractional inhibitory concentration (FIC) index and was characterized by a conventional checkerboard assay (Fernandez-Cuenca et al., 2003).
The next test has as its system K. pneumoniae. The test is described as follows: Synergy results for co-administration of A3-APO (ARV-1501). The test is classed as cell-based. The protocol:
Restoring antibiotic sensitivity to resistant bacteria. A colistin-resistant, carbapenem-resistant strain of K. pneumonia (K97/09) from a clinical isolate was used to test the effect of A3-APO treatment on antibiotic resistance. An in vitro assay measuring visible bacterial growth in the presence of A3-APO and imipenem or colistin was performed.
Synergy Results for Co-administration of A3-APO (ARV-1501)

In test [5] the test system is K. pneumoniae K97/09. The test is described as follows: Bacteremia Synergy Assay 1 (mouse systemic infection). The test is classed as in vivo. Particulars: 10 mg/kg sc (Group 4), monotherapy. The protocol: (§3) In vivo Studies. Animals. Assays 1-2. NMRI (Naval Medical Research Institute) BR or CD-1 mice (Toxi-Coop Zrt, Budapest, Hungary) were housed in plastic type 2 cages, 3-5 mice per cage, on softwood granules as bedding. The room was kept between 21° C. and 25° C. with 12 h light:12 h dark cycles. The animals had free access to tap water and pelleted rodent food. Upon completion of the experiments, surviving mice were euthanized by diethyl ether inhalation. Animals were maintained and handled in accordance with the recommendations of the Guidelines for the Care and Use of Laboratory Animals, and the protocols were approved by the Animal Care Committee of Semmelweis University. The planned 15 treatment groups of mice were divided roughly equally into two assays with 8 and 7 treatment groups and untreated controls in each assay for safe and humane handling of large numbers of mice.
(§4) Infection models. NMRI mice weighing approximately 20 g (4 weeks old) were infected by intraperitoneal (ip) injection of 4×10^8 CFU/g K. pneumoniae K97/09. Mice were randomly allocated to 8 and […] groups (5 mice per group).
Bacteremia Synergy Assay 1.
Group 1: phosphate buffered saline (PBS) subcutaneously (sc) 1 h after infection. Group 2: imipenem 30 mg/kg sc at 2, 14 and 26 h after infection. […]
Survival was recorded hourly 24-36 h after infection. […]

Test [6] has as its system K. pneumoniae K97/09. The test can be described thus: Bacteremia Synergy Assay 2 (mouse systemic infection). Format: in vivo. The procedure:
as §3, §4
Bacteremia SYNERGY ASSAY 2.
Group 1: PBS sc 1 h after infection. Group 2: Colistin 1 mg/kg sc at 2 and 13 h after infection. Group 3: A3-APO 1 mg/kg im 1 and 12 h after infection. Group 4: A3-APO 1 mg/kg im 1 and 12 h after infection, colistin 1 mg/kg sc at 2 and 13 h after infection. […]

Regarding “I: [Ac6c]RPDKPRPYLPRPRPPRPVR[Dab]C-NHNH2 / II: [Ac6c]RPDKPRPYLPRPRPPRPVR[Dab]C-NHNH2 / III: [Ac6c]RPDKPRPYLPRPRPPRPVR / IV: [Ac6c]RPDKPRPYLPRPRPPRPVR (amide I:21-III:C, II:21-IV:C; linker I:22-II:22 via pXylylene) [tetramer-xylene-NHNH2]”, the “Antibacterial activity, MIC” value in the test with A. baumannii ATCC 19606 was determined as 12.70 ± 0.96 µM; in the test with E. coli ATCC 29222, 6.24 ± 0.53 µM; in the test on K. pneumoniae ATCC 13883, 4.49 ± 0.56 µM; with P. aeruginosa ATCC 47085, 1.51 ± 0.33 µM.

With “I: H-[Ac6c]RPDKPRPYLPRPRPPRPVR[Dab]-NH2 / II: H-[Ac6c]RPDKPRPYLPRPRPPRPVR (amide I:21-II:C) [A3-APO, (H-Chex-Arg-Pro-Asp-Lys-Pro-Arg-Pro-Tyr-Leu-Pro-Arg-Pro-Arg-Pro-Pro-Arg-Pro-Val-Arg)2-Dab]”, the “Antibacterial activity, MIC” value in the test with A. baumannii ATCC 19606 worked out at 8.00 ± 1.09 µM; with E. coli ATCC 29222, 2.58 ± 1.14 µM; with K. pneumoniae ATCC 13883, 1.44 ± 0.12 µM; in the test with P. aeruginosa ATCC 47085 it was 3.13 ± 0.05 µM. The MIC in test [1] was 32 to 64 µg/mL and 32 µg/mL; in test [2], 32 µg/mL.

In the case of “I: [Ac6c]RPDKPRPYLPRPRPPRPVR[Dab]C-NHNH2 / II: [Ac6c]RPDKPRPYLPRPRPPRPVR[Dab]C-NHNH2 / III: [Ac6c]RPDKPRPYLPRPRPPRPVR / IV: [Ac6c]RPDKPRPYLPRPRPPRPVR (amide I:21-III:C, II:21-IV:C; linker I:22-II:22 via X1) [tetramer-butene-NHNH2]”, the “Antibacterial activity, MIC” value in the test with A. baumannii ATCC 19606 was determined as 1.89 ± 0.63 µM; in the test on E. coli ATCC 29222, 0.94 ± 0.04 µM; in the test with K. pneumoniae ATCC 13883, 0.81 ± 0.02 µM; in the test with P. aeruginosa ATCC 47085 it was 0.77 ± 0.02 µM.

As for “I: H-[Ac6c]RPDKPRPYLPRPRPPRPVR[Dab]C-NH2 / II: H-[Ac6c]RPDKPRPYLPRPRPPRPVR[Dab]C-NH2 / III: H-[Ac6c]RPDKPRPYLPRPRPPRPVR / IV: H-[Ac6c]RPDKPRPYLPRPRPPRPVR (amide I:21-III:C, II:21-IV:C; linker I:22-II:22 via Maleimide(3,4-diyl)) [tetramer-DTM-NH2]”, the “Antibacterial activity, MIC” value in the test on A. baumannii ATCC 19606 is 13.29 ± 0.10 µM; with E. coli ATCC 29222 it was 2.96 ± 0.99 µM; with K. pneumoniae ATCC 13883, 2.33 ± 0.01 µM; in the test on P. aeruginosa ATCC 47085, 2.05 ± 0.08 µM.

Turning to “I: [Ac6c]RPDKPRPYLPRPRPPRPVR[Dab] / II: [Ac6c]RPDKPRPYLPRPRPPRPVR[Dab] / III: [Ac6c]RPDKPRPYLPRPRPPRPVR / IV: [Ac6c]RPDKPRPYLPRPRPPRPVR (amide I:21-III:C, II:21-IV:C; linker I:C-II:C via X2) [tetramer-DTM-ol]”, the “Antibacterial activity, MIC” value in the test with A. baumannii ATCC 19606 worked out at 11.61 ± 1.44 µM; with E. coli ATCC 29222, 3.67 ± 0.25 µM; with K. pneumoniae ATCC 13883, 2.20 ± 0.01 µM; in the test on P. aeruginosa ATCC 47085 it was 1.86 ± 0.07 µM.

Regarding “I: [Ac6c]RPDKPRPYLPRPRPPRPVR[Dab]C-NHNH2 / II: [Ac6c]RPDKPRPYLPRPRPPRPVR[Dab]C-NHNH2 / III: [Ac6c]RPDKPRPYLPRPRPPRPVR / IV: [Ac6c]RPDKPRPYLPRPRPPRPVR (amide I:21-III:C, II:21-IV:C; linker I:22-II:22 via BMH) [tetramer-bismal-NHNH2]”, the “Antibacterial activity, MIC” value with A. baumannii ATCC 19606 stood at 10.35 ± 0.22 µM; in the test on E. coli ATCC 29222 it was 3.93 ± 0.04 µM; in the test with K. pneumoniae ATCC 13883, 3.18 ± 0.03 µM; in the test with P. aeruginosa ATCC 47085, 1.62 ± 0.11 µM.

Turning to “I: H-[Ac6c]RPDKPRPYLPRPRPPRPVR[Dab]-NHNH2 / II: H-[Ac6c]RPDKPRPYLPRPRPPRPVR (amide I:21-II:C) [dimer-NHNH2]”, the “Antibacterial activity, MIC” value in the test with A. baumannii ATCC 19606 turned out to be 5.31 ± 0.73 µM; with E. coli ATCC 29222 it was 2.99 ± 1.00 µM; in the test on K. pneumoniae ATCC 13883 it was 3.63 ± 0.02 µM; in the test on P. aeruginosa ATCC 47085, 3.01 ± 0.18 µM.

`CCC[C@H](NC(=O)[C@H](CCC(=O)O)NC(=O)[C@@H](N)[C@H](C)O)C(=O)N[C@H](C(=O)N[C@@H](C)C(=O)N[C@@H](CC(C)C)C(=O)N[C@@H](CO)C(=O)N[C@@H](CCCNC(=N)N)C(=O)NC1(C(N)=O)CCCCC1)C(C)C` [Allo-aca] (H-[aThr]E[Nva]VALSR[Ac6c]-NH2; N-terminus and C-terminus assumed): the “improvement in the MIC values when added together with imipenem or colistin” value in test [3] and in [4] was “failed to exert any improvement” throughout.

Turning to colistin, the “MIC of the antibiotic before co-administration (decrease from)” value in the test on K. pneumoniae (antibiotic without A3-APO) is more than 64. In the test with K. pneumoniae (co-administered with A3-APO (ARV-1501)), the “MIC of the antibiotic on co-administration (decrease to)” value is listed as 1. In addition, the survival in the test on K. pneumoniae K97/09 [5] was 60%. Moreover, in the test on K. pneumoniae K97/09 [6] (colistin 1 mg/kg sc (Group 2), after 6 h), the “reduction of the bacterial burden” value is given as less than 1 log 10 unit. In addition, the “survival at 36 h” value with K. pneumoniae K97/09 [6] (colistin 1 mg/kg sc twice (Group 2), monotherapy) stood at 40%. Also, the minimum inhibitory concentration (MIC) in test [1] was 64 µg/mL; in [2], less than 0.5 µg/mL.

For orientation: MIC means the lowest concentration found to suppress growth. Low values mean inhibition by little substance, high ones a need for much substance.
